“Also recorded” adds a separate entry of the source.
How the values were obtained:
PLCγ2 = PLCγ2 tyrosine phosphorylation in Ramos B cells; assay type: cell-based, human; details: 16 h, dose-dependent, no antigen receptor stimulation
Protocol: Syk is essential for the tyrosine phosphorylation of PLCγ2 that leads to Ca^2+ signaling in B cells following antigen receptor stimulation (M. Takata et al., EMBO J. 13:1341-1349 (1994)). […] In the experiments shown in FIG. 24, Ramos B cells were treated 16 h with the indicated concentrations of BMLOV and then stimulated for 2 min with α-μ. Antibody binding in immunoblots was detected by ECL. […] The extent of tyrosine phosphorylation of PLCγ2 induced by BMLOV was substantially more than that observed following a maximal sIgM stimulation, and no additional tyrosine phosphorylation of PLCγ2 could be induced by sIgM stimulation of BMLOV treated cells.

[1] = test system: MDAMB-453 breast carcinoma cells; assay: Clonogenic assay in methylcellulose; assay type: cell-based; details: dose as high as 100 μM BMLOV
Protocol: (§1) The selective cytotoxicity of BMLOV was examined in clonogenic assays. Cells were grown in methylcellulose media and the number of colonies formed after seven days of treatment with various doses of the drug were determined. The clonogenic assays were performed with six replicates for each treatment as described [F. M. Uckun et al., J. Exp. Med. 163:347-368 (1986); F. M. Uckun & J. A. Ledbetter, Proc. Natl. Acad. Sci. USA 85:8603-8607 (1988)). The data is given plus/minus the standard error of the mean.

[2] = test system: normal peripheral blood T cells
Protocol: IL-2Rα expression was analyzed by flow cytometry after staining the cells with fluorescein-labeled anti-CD25. Cells not receiving any treatment are shown by the shaded profile, (- - -) 25 μM BMLOV only; (-) G19-4 only; (. . . ) G19-4 plus BMLOV. In Panel A, no IL-2 was added; in Panel B, incubations were performed with 1 ng/ml IL-2.

PP2A = target: T1, PP2A (Homo sapiens, UniProt P67775); assay: Serine/threonine phosphatase PP2A inhibition; assay type: biochemical; details: vs CD45 and PTP1B
T1 construct: purchased Upstate Biotechnology, Lake Placid, N.Y

HL-60 cells = assay: Anti-phosphotyrosine immunoblot; assay type: cell-based, human
REH = assay: Clonogenic assay in methylcellulose; assay type: cell-based; details: for colonies formed: seven days
Protocol: as §1
For assays of cellular proliferation, cells were grown five days in the presence of the indicated concentrations of BMLOV, pulsed 6 hr with [^3 H]-thymidine (New England Nuclear, Boston, Mass.), and counted in a liquid scintillation counter. Human peripheral blood lymphocytes (PBL) from normal volunteers were isolated from lymphocyte separation medium (Litton Bionetics, Kensington, Md.) by density gradient centrifugation. Monocytes were depleted from PBL by two rounds of plastic absorption for 30 minutes at 37° C. B cells were enriched for by negative selection using complement plus monoclonal antibodies to CD2, CD3, CD4, and CD8 for complement depletion. Clonogenic assays of colony formation in methylcellulose medium were performed as previously described (F. M. Uckun et al. (1992), supra).

T cells = assay: Anti-phosphotyrosine immunoblot of T cell lysates, basal and anti-CD3 stimulated; assay type: cell-based; details: 16 h, even at 50 μM BMLOV
Protocol: In the experiments shown in FIG. 25, human PHA-induced T cell blasts were treated overnight with the indicated concentrations of BMLOV. In Panel A, the baseline level of intracellular free Ca^2+ ([Ca^2+ ]i) was established for 1 min, and then the cells were treated with biotinylated anti-CD3 mAb (G19-4). After 5 min avidin was added (gap in the trace) to cross-link the antibody. In Panel B, assays were performed as in Panel A, but in the presence of 5 mM EGTA. […] In the experiments shown in FIG. 26, cells were treated 16 h with BMLOV and then stimulated with anti-CD3 mAb G19-4 for 5 min. Cells were then washed and resuspended in fresh media at equal concentrations of BMLOV at 37° C. Cells were then harvested and lysed at times following the initiation of CD3 stimulation as indicated. Antibody binding in immunoblots was detected by ECL.

[3] = test system: L1210 murine T cell leukemia cells; assay: Apoptosis: DNA fragmentation on agarose gel; assay type: cell-based; details: pV(phen), FIG. 18
Protocol: For these experiments, cell samples (2×10^6 cells) were centrifuged at 200× g, the media removed by aspiration and the cell pellets stored at -70° C. until processing. Cell pellets were resuspended in 300 μl digestion buffer (100 mM NaCl, 10 mM Tris-HCl, pH 8.0, 25 mM EDTA, 0.5% SDS, 0.1 mg/ml protease K) and incubated for 12 hours at 50° C. DNase-free ribonuclease (5 μg) in 200 μl TE buffer (10 mM Tris-HCl, pH 7.5, 1 mM EDTA) was added to each sample followed by incubation for 2 hours at 37° C. DNA was then extracted once with phenol:chloroform, once with chloroform and then precipitated with 0.5 volumes of ammonium acetate and 2 volumes of ethanol at -70° C. for 12 hours. The precipitated DNA was resuspended in 200 μl TE buffer and quantitated by absorbance at 260 nanometers. The DNA (15 μg) was applied to a 1.3% agarose gel in TBE buffer (89 mM Tris base, 89 mM boric acid, 2 mM EDTA) resolved at 20 mA constant current and the DNA was visualized by staining with ethidium bromide. Fragmented DNA due to apoptosis appeared as a ladder of bands on the gel.
L1210 murine T cell leukemia cells were treated with the indicated concentrations of pV(phen) for the indicated times and the DNA was examined by gel electrophoresis as in Example 3.

[4] = test system: 70Z/3 B cell leukemia cell line; assay: [3H]thymidine incorporation assay; assay type: cell-based, murine; details: 702/3, 5 days
Protocol: (§2) The cell lines A20, 70Z-3, L1210, and P388D were used. A20 is a B cell lymphoma cell line; 70Z/3 is a B cell leukemia cell line; L1210 is a T cell leukemia cell line; and P388D is a myeloid leukemia cell line. The cells were grown for 5 days in the presence of pV(phen) and pulsed with [^3 H]-thymidine on day 5. The extent of DNA synthesis was then determined by counting the radioactivity incorporated into the cells, as in Example 5, supra. […] The effects on L1210 cells and P388D cells are particularly noteworthy because these cell lines have been extensively used by the National Cancer Institute to identify anti-cancer drugs.

P388D = assay: [3H]thymidine incorporation assay; assay type: cell-based, murine; details: 5 days
Protocol: as §2

L1210 = assay: [3H]thymidine incorporation assay; assay type: cell-based, murine; details: 5 days
Protocol: as §2

[5] = peripheral blood t cells, 24 h, 25 µM

T1 sequence (P67775 whole entry): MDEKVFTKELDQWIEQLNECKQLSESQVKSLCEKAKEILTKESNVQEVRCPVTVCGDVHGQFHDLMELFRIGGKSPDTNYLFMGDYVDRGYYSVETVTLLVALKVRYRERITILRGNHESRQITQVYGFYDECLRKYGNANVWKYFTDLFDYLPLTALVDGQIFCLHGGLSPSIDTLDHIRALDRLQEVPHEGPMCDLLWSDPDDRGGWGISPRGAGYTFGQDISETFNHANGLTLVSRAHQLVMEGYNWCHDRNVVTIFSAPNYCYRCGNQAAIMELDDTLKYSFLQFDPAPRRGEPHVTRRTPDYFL

SMILES: Cc1occc(=O)c1[O-].Cc1occc(=O)c1[O-].[O]=[V+2] [BMLOV, Bis(maltolato)oxovanadium (IV)]
- tyrosine phosphorylation of PLCγ2 (PLCγ2): strongly induced the tyrosine phosphorylation of PLCγ2
- inhibition of clonogenic growth [1]: inhibited only moderately
- IL-2Rα expression without anti-CD3 stimulation ([2]; BMLOV alone or in combination with IL-2): did not induce IL-2Rα expression
- enhancement of IL-2Rα expression over anti-CD3 and IL-2 [2, 5]: 3 fold
- increase of IL-2Rα expression over anti-CD3 stimulation alone [2, 5]: 1.7 fold
- concentration for similar inhibition relative to phosphotyrosine phosphatases (PP2A): over 100 fold
- tyrosine phosphorylation response (HL-60 cells): showed a tyrosine phosphorylation response; also recorded: strong tyrosine phosphorylation was observed
- percentage of inhibition of clonogenic growth (REH; 1 μM BMLOV): 64.7%
- colonies formed (REH; 1 μM BMLOV): 1810 ± 385 colonies per 10^4 cells
- percentage of inhibition of clonogenic growth (REH; 5 μM BMLOV): 98.6%
- colonies formed (REH; 5 μM BMLOV): 71 ± 8 colonies per 10^4 cells
- percentage of inhibition of clonogenic growth (REH; 10 μM BMLOV): 99.8%
- colonies formed (REH; 10 μM BMLOV): 8 ± 1 colonies per 10^4 cells
- basal or T cell receptor induced cellular tyrosine phosphorylation (T cells): little effect on basal or T cell receptor induced cellular tyrosine phosphorylation

SMILES: [Na+].[O]=[V-]12([O][O]1)[O][O]2.c1cnc2c(c1)ccc1cccnc12 [pV(phen), sodium (1,10-phenanthroline) oxodiperoxovanadium (V)]
- induction of apoptosis (DNA fragmentation) [3]: fragmentation of DNA demonstrates apoptosis
- [3H]-thymidine radioactivity incorporated ([4]; 5 μM pV(phen)): 53 ± 27
- [3H]-thymidine radioactivity incorporated ([4]; 10 μM pV(phen)): 49 ± 34
- [3H]-thymidine radioactivity incorporated (P388D; 5 μM pV(phen)): 2513 ± 1424
- [3H]-thymidine radioactivity incorporated (P388D; 10 μM pV(phen)): 362 ± 60
- [3H]-thymidine radioactivity incorporated (L1210; 5 μM pV(phen)): 244 ± 155
- [3H]-thymidine radioactivity incorporated (L1210; 10 μM pV(phen)): 464 ± 116

Source: US5877210A, “Phosphotyrosine phosphatase inhibitors or phosphotyrosine kinase activators for controlling cellular proliferation” (priority 1995, dated 1999)
